According to paper PMC12291851, “Hydrogen Sulfide (H2S)-Donating Formyl Peptide Receptor 2 (FPR2) Agonists: Design, Synthesis, and Biological Evaluation in Primary Mouse Microglia Culture” (Antioxidants, 2025):

How the values were obtained:
FPR2 [1] = target: T1, FPR2 (Homo sapiens, UniProt P25090); assay: FPR2 desensitization: inhibition of WKYMVM-induced Ca2+ mobilization in FPR2-HL60 cells; format: cell-based; parameters: expressed in transfected cells; host or cells: HL-60 cells; conditions: 10 min preincubation, then 5 nM WKYMVM
T1 sequence (P25090 1-351): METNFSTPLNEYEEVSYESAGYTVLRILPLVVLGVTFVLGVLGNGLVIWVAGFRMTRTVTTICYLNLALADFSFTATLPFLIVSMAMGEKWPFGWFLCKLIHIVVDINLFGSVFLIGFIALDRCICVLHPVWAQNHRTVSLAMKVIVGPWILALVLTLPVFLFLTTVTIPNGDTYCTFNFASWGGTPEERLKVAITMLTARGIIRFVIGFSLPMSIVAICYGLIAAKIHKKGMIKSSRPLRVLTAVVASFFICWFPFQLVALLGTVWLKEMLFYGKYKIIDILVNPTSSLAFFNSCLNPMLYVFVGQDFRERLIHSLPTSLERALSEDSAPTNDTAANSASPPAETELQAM
Excerpt: Finally, we assessed the ability of compounds to induce receptor desensitization at FPR2 by measuring the inhibition of Ca^2+ mobilization induced by subsequent treatment with a standard FPR2 agonist (IC50, Table 1) because FPR2 undergoes homologous desensitization after stimulation with agonists, resulting in functional antagonism (IC50, Table 1). […] We also evaluated the effects of the thiourea and thioamide derivatives on Ca^2+ mobilization in FPR1-HL60-transfected cells after stimulation with the FPR1 agonist (IC50, Table 1).

FPR2 [2] = target: T1, FPR2; assay: Ca2+ mobilization (agonist activity) in FPR2-HL60 cells; conditions: for Ca2+ Mobilization HL60-FPR2 Efficacy: response to 5 nM WKYMVM = 100%
HepG2 cells = assay: Intracellular H2S release with WSP-1 probe; format: cell-based, human; conditions: for intracellular H2S release, WSP-1 fluorescence signal vs vehicle: HepG2, tested concentrations 100-300 μM, 60 min
Protocol: All cell culture reagents were purchased from S.I.A.L. S.r.l. (Rome, Italy). WSP-1 (Washington State Probe-1, 3′-methoxy-3-oxo-3H-spiro[isobenzofuran-1,9′-xanthen]-6′-yl 2-(pyridine-2-yl-disulfanyl benzoate), was obtained from Cayman Chemical (Cayman, Ann Arbor, MI, USA). HepG2, human hepatocellular carcinoma cells, was obtained from American Type Culture Collection (ATCC, Bethesda, MD, USA). Human hepatocellular carcinoma cells (HepG2) were cultured in Minimum Essential Eagle’s Medium. This medium was supplemented with 10% (v/v) Fetal Bovine Serum, 1% (v/v) Glutamine and 1% (v/v) Penicillin-Streptomycin, 1% non-essential amino acids. Cells were cultivated at 37 °C with 5% CO2 at saturated humidity.
These experiments were carried out as already described. HepG2 cells were cultured up to about 90% confluence, and 24 h before the experiment cells were seeded into a 96-well flat bottom black plate (50,000 cells per well). After 24 h, the medium was replaced and cells were incubated at 37 °C for 30 min with a 10 mM solution of the fluorescent WSP-1 probe, which is highly sensitive for H2S detection. After incubation, the supernatant was removed and replaced with different concentrations (100, 200, and 300 µM) of the tested compounds dissolved in HBSS buffer. […] ADT 100 µM was used as a slow H2S-donor reference compound. Data were analyzed by one-way ANOVA for repeated measures, followed by post hoc Bonferroni’s multiple comparison test. Results are expressed as mean ± SEM of 3 independent experiments in triplicate. Statistical significance was accepted at a level of p < 0.05.
Next, we assessed the intracellular H2S release of thioureas and thioamides in HepG2 cells. The compounds were tested at different concentrations (100–300 μM) to evaluate if the release was dose-dependent. We also assayed ADT-OH and TIA as reference H2S-donors, and 3a as a negative control. The results were normalized to the fluorescence signal obtained with 100 μM ADT-OH.

N#Cc1ccc(C[C@H](NC(=O)Nc2ccc(F)cc2)C(=S)N2CCc3ccccc32)cc1 [7b, (S)-1-[3-(4-Cyanophenyl)-1-(indolin-1-yl)-1-thioxopropan-2-yl]-3-(4-fluorophenyl)urea]
Ca2+ Mobilization HL60-FPR2 IC50 (FPR2 desensitization) (FPR2 [1]): submicromolar concentration | IC50 (FPR2 [1]): 60 ± 20 nM | fold less potent at FPR2 than the corresponding urea/amide (FPR2 [2]; ratio of FPR2 EC50 vs 3b, 3c or 4b): 23 fold | Ca2+ Mobilization HL60-FPR2 Efficacy (FPR2 [2]): 170% | intracellular level of H2S vs reference H2S donor ADT (HepG2 cells; HepG2, at 200 and 300 μM, p < 0.001 vs. ADT): more than the reference H2S donor ADT | intracellular H2S release, WSP-1 fluorescence signal vs vehicle (HepG2 cells): significant fluorescence signal increase at all tested concentrations | levels of H2S release in HepG2 cells (HepG2 cells; summary of WSP-1 results): very high levels of H2S release

N#Cc1ccc(C[C@H](NC(=O)Nc2ccc(Br)cc2)C(=S)N2CCc3ccccc32)cc1 [8b, (S)-1-(4-Bromophenyl)-3-[3-(4-cyanophenyl)-1-(indolin-1-yl)-1-thioxopropan-2-yl]urea]
Ca2+ Mobilization HL60-FPR2 IC50 (FPR2 desensitization) (FPR2 [1]): submicromolar concentration | IC50 (FPR2 [1]): 7 ± 3 nM | Ca2+ Mobilization HL60-FPR2 Efficacy (FPR2 [2]): 150% | intracellular H2S release, WSP-1 fluorescence signal vs vehicle (HepG2 cells): not statistically significant
